Results as given in patent US11993576B2, “N-benzyl-N-arylsulfonamide derivative and preparation and use thereof” (Hangzhou Yirui Pharmaceutical Technology Co., Ltd, priority 2019, dated 2024).

Molecular target: human Kv1.3 (Homo sapiens, UniProt P22001)
Assay: IonWorks automated patch clamp assay of inhibitory activity against Kv1.3
Type: cell-based
Settings: automated patch clamp method; CHO-K1 cells stably expressing human Kv1.3
Procedure: I. IonWorks Automated Patch Clamp Assay of Inhibitory Activity Against Kv1.3
The principle and method for Kv1.3 IonWorks assay can be found in Schroeder et al. [Schroeder et al. J Biomol Screen 2003, 8(1):50-64]
Inhibitory activity of the compounds against Kv1.3 was assessed using a CHO-K1 recombinant cell line stably expressing human Kv1.3 (Charles River, Calif.). The cells were cultured in an F-12K culture medium containing 5% calf serum (Invitrogen, Carlsbad. Calif.) in an incubator at 37° C. and under air humidity with 6% CO2. Prior to be fed in the IonWorks system, the adherent cells were treated with Versene at 37° C. for 6-7 min. After gently beating the culture flask, the cells were re-suspended in a PBS phosphate buffer, and then were centrifuged at 50×g for 4 min. After a short grinding, the cells were eventually re-suspended in an external recording solution at a density of approximately 1×10^6/mL.
The compounds were dissolved in DMSO to formulate a final assay concentration of 300× on the master plate. The final gradient assay concentrations were […], 0.096, 0.048, 0.24, 1.2, 6 and 30 μM. All 300× stock solutions of each compound in DMSO were transferred to a 384-well plate with 2 μl per well. The plates were sealed and stored at −80° C. until the day of assay.
On the day of assay, the plates were each thawed at room temperature. After centrifugation, 198 μl of the external recording solution (with the components of: 130 mM Na-Gluconate, 20 mM NaCl, 4 mM KCl, 1 mM MgCl2, 1.8 mM CaCl2, 5 mM Glucose and 10 mM HEPES, pH7.3) was added and mixed thoroughly. This step provided a 1:100 dilution for the compounds. After addition of cells to IonWorks, a further 1:3 dilution was carried out, resulting in a total dilution of 1:300. At least 8 wells were reserved as blank control on each of the plates, i.e., containing only 0.3% DMSO. In addition, at least 8 wells were reserved as positive control to detect the specificity to cell signals. Fluoxetine, a compound as the positive control, was assayed at its maximum blocking concentration (100 μm) and secondary maximum blocking concentration (10 μm). In addition, an internal recording solution used in the assay (with the components of: 100 mM K-gluconate, 40 mM KCl, 1 mM MgCl2, 1 mM EGTA and 10 mM HEPES, pH7.3) contained Amphotericin B at a final concentration of 200 μg/mL to gain current channels inside the cells. The osmotic pressure of the solution was adjusted with sucrose.
Experimental procedures were carried out following the protocols as set by IonWorks Quattro system (Molecular Devices, San Jose, CA). The current of human Kv1.3 was elicited to 0 millivolt (mV) for four times by a pulse lasting 1 second. A potential of −80 mV was maintained between pulses, for 5 seconds. First, a early voltage application program was started in the IonWorks Quattro system, and then the compounds were added and incubated for 600 seconds. Next, a late voltage application program was started until completion of all assays.
The maximum peak outward currents both before and after addition of the compounds as well as the average tail current elicited when the fourth pulse rose to 0 mV were measured. The inhibitory activity of the compounds against Kv1.3 can be calculated by dividing the measured current amplitude after addition of the compounds by the measured current amplitude before addition of the compounds.
All data was calibrated by a data filtration program of the IonWorks Quattro system. The filtration standard was that: seal quality >30 MΩ, decrease of seal resistance <50% and current amplitude >200 pA.

human Kv1.3, sequence (P22001 whole entry): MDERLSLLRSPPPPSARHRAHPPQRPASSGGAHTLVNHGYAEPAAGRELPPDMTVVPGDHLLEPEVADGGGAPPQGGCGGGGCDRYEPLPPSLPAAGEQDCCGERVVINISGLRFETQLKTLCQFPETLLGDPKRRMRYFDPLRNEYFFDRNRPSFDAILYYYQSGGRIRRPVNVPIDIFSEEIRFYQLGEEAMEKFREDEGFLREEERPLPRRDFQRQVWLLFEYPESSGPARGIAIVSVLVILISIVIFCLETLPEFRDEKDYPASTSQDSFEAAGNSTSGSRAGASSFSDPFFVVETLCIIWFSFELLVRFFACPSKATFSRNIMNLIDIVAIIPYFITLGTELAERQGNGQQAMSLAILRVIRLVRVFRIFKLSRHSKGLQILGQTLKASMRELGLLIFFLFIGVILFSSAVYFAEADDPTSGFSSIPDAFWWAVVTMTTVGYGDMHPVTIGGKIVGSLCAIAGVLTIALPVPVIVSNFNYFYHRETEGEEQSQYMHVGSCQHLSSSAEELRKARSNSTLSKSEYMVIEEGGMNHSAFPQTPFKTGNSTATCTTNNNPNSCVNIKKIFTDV

Compound | IC50
CCOC(=O)N1CCN(c2ccc(N(Cc3ccccc3)S(=O)(=O)c3ccccc3)cc2C#N)CC1 [Compound 1, ethyl 4-(4-(N-benzylbenzenesulfonamido)-2-cyanophenyl)piperazin-1-formate] | 0.265 µM
CCOC(=O)N1CCN(c2ccc(N(Cc3ccc(F)cc3)S(=O)(=O)c3ccc(F)cc3)cc2C#N)CC1 [Compound 2, ethyl 4-(2-cyano-4-((4-fluoro-N-(4-fluorobenzyl)phenyl)sulfonamido)phenyl)piperazin-1-formate] | 0.131 µM
CCOC(=O)N1CCN(c2ccc(N(Cc3ccc(F)c(OC)c3)S(=O)(=O)c3ccc(F)cc3)cc2C#N)CC1 [Compound 3, ethyl 4-(2-cyano-4-((4-fluoro-N-(4-fluoro-3-methoxybenzyl)phenyl)sulfonamido)phenyl)piperazin-1-formate] | 0.107 µM
CCOC(=O)N1CCN(c2ccc(N(C(=O)c3ccccc3)S(=O)(=O)c3ccccc3)cc2C#N)CC1 [Compound 4, ethyl 4-(2-cyano-4-(N-(benzenesulfonamido)benzamido)phenyl)piperazin-1-formate] | 12.9 µM
N#Cc1cc(N(Cc2ccccc2)S(=O)(=O)c2ccccc2)ccc1N1CCC(=O)CC1 [Compound 5, N-benzyl-N-(3-cyano-4-(4-oxopiperidin-1-yl)phenyl) benzenesulfonamide] | 0.186 µM
N#Cc1cc(N(Cc2ccccc2)S(=O)(=O)c2ccccc2)ccc1N1CCC(O)CC1 [Compound 6, N-benzyl-N-(3-cyano-4-(4-hydroxypiperidin-1-yl)phenyl)benzenesulfonamide] | 0.193 µM
CC(=O)OC1CCN(c2ccc(N(Cc3ccccc3)S(=O)(=O)c3ccccc3)cc2C#N)CC1 [Compound 7, N-benzyl-N-(3-cyano-4-(4-acetyloxypiperidin-1-yl)phenyl)benzenesulfonamide] | 0.312 µM
CCCN(c1ccc(N2CCN(C(=O)OCC)CC2)c(C#N)c1)S(=O)(=O)c1ccc(F)cc1 [Compound 8, Ethyl 4-(2-cyano-4-((4-fluoro-N-propylphenyl)sulfonamido)phenyl)piperazin-1-formate] | 9.3 µM
CCCS(=O)(=O)N(Cc1ccc(F)cc1)c1ccc(N2CCN(C(=O)OCC)CC2)c(C#N)c1 [Compound 9, ethyl 4-(2-cyano-4-(N-(4-fluorobenzyl)propanesulfonamido)phenyl)piperazin-1-formate] | 0.134 µM
N#Cc1cc(N(Cc2ccc(F)cc2)S(=O)(=O)c2ccccc2)ccc1N1CCOCC1 [Compound 10, N-(3-cyano-4-morpholinylphenyl)-N-(4-fluorobenzyl) benzenesulfonamide] | 0.098 µM
CN(C)C(=O)N1CCN(c2ccc(N(Cc3ccccc3)S(=O)(=O)c3ccccc3)cc2C#N)CC1 [Compound 11, 4-(4-(N-benzylbenzenesulfonamido)-2-cyanophenyl)-N,N-dimethylpiperazin-1-formamide] | 0.195 µM
CN(C)S(=O)(=O)C1CCN(c2ccc(N(Cc3ccccc3)S(=O)(=O)c3ccccc3)cc2C#N)CC1 [Compound 12, 1-(4-(N-benzylbenzenesulfonamido)-2-cyanophenyl)-N,N-dimethylpiperidin-4-sulfonamide] | 0.234 µM
CCOC(=O)N1CCN(c2ccc(N(CC(C)C)S(=O)(=O)c3ccccc3)cc2C#N)CC1 [Compound 13, ethyl 4-(2-cyano-4-(N-isobutylphenylsulfonamido)phenyl)piperazin-1-formate] | 6.4 µM
CCOC(=O)NC1CCN(c2ccc(N(Cc3ccccc3)S(=O)(=O)c3ccccc3)cc2C#N)CC1 [Compound 14, ethyl 1-(4-(N-benzylbenzenesulfonamido)-2-cyanophenyl)piperidin-4-yl carbamate] | 0.129 µM
CC(=O)NC1CCN(c2ccc(N(Cc3ccccc3)S(=O)(=O)c3ccccc3)cc2C#N)C1 (stereo not shown) [Compound 15, N-(1-(4-(N-benzylbenzenesulfonamido)-2-cyanophenyl)pyrrolidin-3-yl)acetamide] | 0.31 µM
N#Cc1cc(N(Cc2ccccc2)S(=O)(=O)c2ccccc2)ccc1N1C(=O)CCCC1=O [Compound 16, N-benzyl-N-(3-cyano-4-(2,6-dioxopiperidin-1-yl)phenyl)benzenesulfonamide] | 1.26 µM
